Data set [1] is described as follows: Stability at milling and pressing under normal storage conditions. It is filed as physicochemical.
Data set [2] is described as follows: Release of the active substance in water (USP 24). In kind it is physicochemical. Conditions: for Released torasemide: water, USP 24, 37° C., 50 rpm, 1000 ml. On the procedure: This makes the novel polymorph V of torasemide suitable for the preparation of pharmaceutical preparations having immediate or prolonged action. The novel polymorph V of torasemide obtained according to Example 1 of the present invention was subjected to testing the release of the active substance in water at the temperature of 37° C. [table]

The values that follow come from US7241782B1, “Polymorph V of torasemide” (PLIVA, farmaceutska industrija, dionicko drustvo, priority 2000, dated 2007).

For `Cc1cccc(Nc2ccncc2S(=O)(=O)NC(=O)NC(C)C)c1` [novel polymorph V of torasemide, N-(1-methylethylaminocarbonyl)-4-(3-methyl-phenylamino)-3-pyridinesulfonamide], the “Stability of the crystal form (no transformation into modifications I, II, III or amorphous)” value in data set [1] was “stable at milling and pressing”. Also, in data set [2] (in water (USP 24), same medium), the “Release in comparison with the release profile of known crystalline torasemide modifications” value was “slower release”. Moreover, the Released torasemide in data set [2] (time 0 min) was 0%; in data set [2] (time 15 min) it was 11.3%; in data set [2] (time 30 min), 20.5%; in data set [2] (time 45 min), 26.0%; in data set [2] (time 60 min) it was 30.0%; in data set [2] (time 90 min), 36.0%. Moreover, the Released torasemide in data set [2] (time 120 min) was found to be 40.7%.
